Assays:
[1] = target: T1, human amnionic whole cell cyclooxygenase-2 (WISH cells) (Homo sapiens, UniProt P35354); test: IL-1β induced PGE2 production in WISH cells; assay type: cell-based; settings: read-out: Wish IC50 (parenthetical value)
T1 construct: endogenous in cells; host or cells: human amnionic WISH cells, induced with IL-1beta
T1 sequence (P35354 18-604): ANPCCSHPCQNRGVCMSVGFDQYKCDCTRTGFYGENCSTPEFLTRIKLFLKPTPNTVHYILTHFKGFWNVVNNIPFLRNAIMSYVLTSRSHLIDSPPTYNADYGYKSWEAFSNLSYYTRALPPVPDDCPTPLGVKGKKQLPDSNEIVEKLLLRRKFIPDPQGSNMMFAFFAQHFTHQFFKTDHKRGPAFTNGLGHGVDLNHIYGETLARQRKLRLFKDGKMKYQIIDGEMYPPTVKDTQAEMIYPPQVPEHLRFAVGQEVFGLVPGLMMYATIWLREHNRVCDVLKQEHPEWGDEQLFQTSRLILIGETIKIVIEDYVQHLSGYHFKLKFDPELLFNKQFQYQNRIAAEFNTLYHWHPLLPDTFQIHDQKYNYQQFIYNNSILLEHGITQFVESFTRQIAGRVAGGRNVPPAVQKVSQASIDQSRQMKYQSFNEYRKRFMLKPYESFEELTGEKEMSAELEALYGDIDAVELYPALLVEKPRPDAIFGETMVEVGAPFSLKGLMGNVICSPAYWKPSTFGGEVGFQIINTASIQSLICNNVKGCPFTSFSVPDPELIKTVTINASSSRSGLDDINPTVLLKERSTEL
Outline: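 Confluent (80%) WISH cells were stimulated with 5 ng/ml IL-1β in serum-free Neuman-Tytell medium, with or without test compound in DMSO (0.01% v/v). PGE2 in the culture medium was measured by EIA against standards prepared in the same medium, read by optical density.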

[2] = test system: prostaglandin biosynthesis in vivo (pleural lavage eicosanoids); test: Rat carrageenan pleural inflammation (CIP) model
Outline: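 Male adrenalectomized Sprague-Dawley rats were dosed orally with compound suspended in PEG 400, 30 minutes before intrapleural 2% lambda carrageenan. Pleural lavage collected 4 hours later went into methanol (66% final), and eicosanoids were measured by EIA. Inhibition relative to control mean; ED50 by linear regression.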

[3] = target: T2, Cox-1 in Monocyte U937 cells (Homo sapiens, UniProt P23219); test: Monocyte U937 cell Cox-1 assay; assay type: cell-based; settings: read-out: U937 IC50 (parenthetical value)
T2 construct: endogenous in cells; host or cells: U937 monocyte cells (ATCC)
T2 sequence (P23219 24-599): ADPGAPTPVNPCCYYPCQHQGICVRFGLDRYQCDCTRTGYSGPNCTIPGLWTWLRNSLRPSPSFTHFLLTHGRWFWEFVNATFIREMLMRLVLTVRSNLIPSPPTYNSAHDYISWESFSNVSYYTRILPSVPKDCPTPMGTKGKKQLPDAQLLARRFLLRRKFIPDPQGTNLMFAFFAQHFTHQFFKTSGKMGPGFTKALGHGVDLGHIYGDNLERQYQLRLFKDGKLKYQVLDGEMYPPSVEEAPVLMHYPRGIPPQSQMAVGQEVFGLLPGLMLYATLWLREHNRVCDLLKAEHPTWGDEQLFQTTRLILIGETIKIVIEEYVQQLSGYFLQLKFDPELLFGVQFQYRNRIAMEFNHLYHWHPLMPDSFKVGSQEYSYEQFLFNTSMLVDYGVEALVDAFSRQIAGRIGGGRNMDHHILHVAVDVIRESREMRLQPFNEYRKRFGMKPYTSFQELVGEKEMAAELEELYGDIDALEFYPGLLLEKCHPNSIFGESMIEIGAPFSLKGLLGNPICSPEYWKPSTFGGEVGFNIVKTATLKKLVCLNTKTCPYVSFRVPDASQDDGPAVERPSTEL
Procedure: Human amnionic WISH cells were grown to 80% confluence in 48 well plates. Following removal of the growth medium and two washings with Geys Balanced Salt Solutn, 5 ng IL-1β /ml (UBI, Lake Placid, N.Y.) was added to the cells with or without test compound in DMSO (0.01% v/v) in Neuman-Tytell Serumless Medium (GIBCO, Grand Island, N.Y.). Following an 18 hour incubation to allow for the maximal induction of PGHS-2, the conditioned medium was removed and assayed for PGE2 content by EIA analysis as described above.
Monocyte U937 (ATCC, Rockville, Md.) cells were grown in a similar fashion to the WISH cells. After incubation, the conditioned medium was removed and assayed for […] by EIA analysis as described above.

[4] = target: T3, recombinant human Cox-2 (r-hu Cox-2) (Homo sapiens, UniProt P35354); test: Recombinant human PGHS-2 enzyme assay (RHUCX2); assay type: biochemical; settings: read-out: RHUCX2 IC50 (parenthetical value)
T3 construct: made in house; host or cells: baculovirus/Sf9 insect cells (microsomes)
T3 sequence (P35354 18-604): T1 sequence (P35354 18-604)
Outline: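 Prostaglandin biosynthesis was measured as PGE2 output, read by enzyme immunoassay after a 2.5-minute room-temperature reaction stopped with HCl and neutralized with NaOH.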

[5] = target: T4, Human Whole Platelet Cyclooxygenase-1 (Homo sapiens, UniProt P23219); test: Human Whole Platelet Cyclooxygenase-1 assay (HWPX); assay type: cell-based; settings: read-out: HWPX IC50 (parenthetical value)
T4 construct: from tissue; host or cells: human blood: isolated platelets (A4) or heparinised whole blood (A9)
T4 sequence (P23219 24-599): as above
Outline: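 Washed platelets from healthy-donor ACD blood were pre-incubated with compound for 10 min, then stimulated with calcium ionophore A23187 (8.8 μM final) for 10 min. Reaction stopped with cold 6 mM EDTA; thromboxane in supernatants quantified with a commercial kit.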

IC50 [1]: 50 nM
melting point: 213 to 216 °C
IC50 [3]: 3800 nM
IC50 [4]: 350 nM
IC50 [5]: 2100 nM
Compound: NS(=O)(=O)c1ccc(-c2cnn(-c3ccc(F)cc3)c(=O)c2-c2ccc(F)cc2)cc1 [Example 89]
inhibition in vivo at 10 mg/kg ([2]; 4 h, 10 mpk oral, read-out: CIP % Inhib. @ 10 mpk): 68.3%
ED50 ([2]; oral): 3.4 mg/kg

From patent US20020028938A1, “Prostaglandin endoperoxide H synthase biosynthesis inhibitors” (priority 1997, published 2002)
